The structures appear in SMILES notation. Square brackets hold non-standard residues; d marks the D form. Peptide text beside a SMILES is read from it. * marks the point of attachment. dPhe(4-NHCONH2) = NC(=O)Nc1ccc(C[C@@H](N)C(=O)O)cc1; Dihydroorotyl(S) = O=C1C[C@@H](C(=O)*)NC(=O)N1; dPhe(4-Cl) = N[C@H](Cc1ccc(Cl)cc1)C(=O)O; Phe(4-NH2) = Nc1ccc(C[C@H](N)C(=O)O)cc1; d2Nal = N[C@H](Cc1ccc2ccccc2c1)C(=O)O; Lys(iPr) = CC(C)NCCCC[C@H](N)C(=O)O; d3Pal = N[C@H](Cc1cccnc1)C(=O)O

Experimental findings from patent publication US9877999B2, “Methods for treating metastatic stage prostate cancer” (Ferring International SA, priority 2008, dated 2018) are described below.

The nature of one data set: clinical. Particulars: male, human, in vivo, sc, 240 mg.
The conditions of data set [1]: human, in vivo, sc.

In “clinical”, `CC(=O)N[C@H](Cc1ccc2ccccc2c1)C(=O)N[C@H](Cc1ccc(Cl)cc1)C(=O)N[C@H](Cc1cccnc1)C(=O)N[C@@H](CO)C(=O)N[C@@H](Cc1ccc(NC(=O)[C@@H]2CC(=O)NC(=O)N2)cc1)C(=O)N[C@H](Cc1ccc(NC(N)=O)cc1)C(=O)N[C@@H](CC(C)C)C(=O)N[C@@H](CCCCNC(C)C)C(=O)N1CCC[C@H]1C(=O)N[C@H](C)C(N)=O` [degarelix, D-Alaninamide, N-acetyl-3-(2-naphthalenyl)-D-alanyl-4-chloro-D-phenylalanyl-3-(3-pyridinyl)-D-alanyl-L-seryl-4-[[[(4S)-hexahydro-2,6-dioxo-4-pyrimidinyl]carbonyl]amino]-L phenylalanyl-4-[(aminocarbonyl)amino]-D-phenylalanyl-L leucyl-N6-(1-methylethyl)-L-lysyl-L-prolyl] (Ac-[d2Nal][dPhe(4-Cl)][d3Pal]S[Phe(4-NH2)](Dihydroorotyl(S))[dPhe(4-NHCONH2)]L[Lys(iPr)]P[dA]-NH2) came in with a Cmax of 53.4 ng/mL. Further, the Tmax in “clinical” was 33.6 h. Moreover, the half-life is 43 days in “clinical” (T½) and roughly 43 days in “clinical” (median terminal half-life). In data set [1], the “significant metabolites in plasma samples” value was “No significant metabolites were detected”. In data set [1] (240 mg), the AUC was 1240 ng·days/mL.

In general, Cmax refers to the peak of the concentration-time curve. One may read the Tmax as the time from dosing to the highest level. The half-life is the time in which the quantity being followed falls by half. Low readings indicate rapid decline, high ones slow decline. One may read the AUC as the area under the concentration-time curve, a measure of exposure. A low value points to low exposure.
